From patent publication US8354414B2, “Substituted bicyclic pyrimidines” (Cephalon, Inc, priority 2006, dated 2013) come the findings set out here.

pIC50: −log10 of the molar value. Read-outs that look alike come from different tables or passages of the source. Bounds are passed on as bounds.

In one test the target is T1, CDK5/GST-p25 (Homo sapiens, UniProt Q00535).
T1 construct: The final construct, encoding for full-length human CDK5; made in house; host or cells: Sf21 insect cells (baculovirus co-infection)
T1 sequence (Q00535 whole entry): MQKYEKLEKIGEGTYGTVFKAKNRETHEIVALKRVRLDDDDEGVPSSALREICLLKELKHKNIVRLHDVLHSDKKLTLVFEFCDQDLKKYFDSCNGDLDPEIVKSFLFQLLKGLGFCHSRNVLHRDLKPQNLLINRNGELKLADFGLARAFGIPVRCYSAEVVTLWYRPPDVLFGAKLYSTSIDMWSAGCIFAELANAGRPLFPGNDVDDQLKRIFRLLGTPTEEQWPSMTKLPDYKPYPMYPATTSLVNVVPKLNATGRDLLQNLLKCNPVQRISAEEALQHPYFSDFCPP
T1 sequence (Q15078 108-307 partner limits assumed): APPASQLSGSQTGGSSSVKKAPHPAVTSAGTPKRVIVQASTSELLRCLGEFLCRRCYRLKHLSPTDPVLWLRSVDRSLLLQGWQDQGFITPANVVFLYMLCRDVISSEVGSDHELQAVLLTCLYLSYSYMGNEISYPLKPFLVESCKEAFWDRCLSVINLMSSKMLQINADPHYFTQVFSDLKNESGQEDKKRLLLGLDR
Kind of test: Inhibition of CDK5/GST-p25 kinase activity (ELISA with time-resolved fluorescence readout). The format is biochemical. The method, boiled down: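 The substrate, GST-Rb(773-928), was immobilised on plates and phosphorylated for 20 min at 37 °C by 2 ng/ml CDK5/GST-p25 in HEPES pH 7.2 with 10 µM ATP and 10 mM MgCl2. Both proteins were human and co-expressed in insect cells. Ser-780 phosphorylation was read by europium time-resolved fluorescence and converted to IC50.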
For orientation: In an ELISA, binding on a coated surface is turned into a signal by an enzyme label.

The next test concerns the target T2, His6-GSK-3β (Homo sapiens, UniProt P49841).
T2 construct: made in house; host or cells: Sf21 insect cells (baculovirus)
Briefly: Inhibition of His6-GSK-3β kinase activity (ELISA-based format, time-resolved fluorescence readout). The test is classed as biochemical. Conditions: read-out: GSK3β IC50. An outline of the steps:
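Plate-bound recombinant GST-Rb substrate was phosphorylated for 30 min at 37° C by baculovirus-expressed His6-GSK-3β (200 ng/ml) at 20 μM ATP, 10 mM MgCl2, 2.5% DMSO. Europium time-resolved fluorescence of anti-phospho-Ser780 Rb signal gave inhibition, fitted to IC50.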

T2 sequence (P49841 2-419): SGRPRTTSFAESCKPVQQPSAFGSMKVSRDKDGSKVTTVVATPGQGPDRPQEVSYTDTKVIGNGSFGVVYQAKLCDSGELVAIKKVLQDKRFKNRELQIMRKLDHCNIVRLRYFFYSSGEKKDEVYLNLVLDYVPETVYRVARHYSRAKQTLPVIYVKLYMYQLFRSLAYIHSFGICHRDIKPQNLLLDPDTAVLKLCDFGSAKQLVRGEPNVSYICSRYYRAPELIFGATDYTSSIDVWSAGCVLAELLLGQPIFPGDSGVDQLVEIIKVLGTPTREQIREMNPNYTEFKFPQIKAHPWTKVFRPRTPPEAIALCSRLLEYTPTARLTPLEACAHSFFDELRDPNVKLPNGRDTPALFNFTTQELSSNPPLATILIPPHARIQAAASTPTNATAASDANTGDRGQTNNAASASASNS

Regarding `CCOCCNc1nc2c(c(C3C(=O)Nc4ccc(Cl)cc43)n1)CCC2` (stereo not drawn) [Example 325, 5-Chloro-3-[2-(2-ethoxy-ethylamino)-6,7-dihydro-5H-cyclopentapyrimidin-4-yl]-1,3-dihydro-indol-2-one], the pIC50 against CDK5/GST-p25 (class symbols) and on His6-GSK-3β (class symbols) was under 5.00 throughout.

Regarding `O=C1Nc2ccc(Br)cc2C1c1nc(NCc2ccccn2)nc2c1CCC2` (stereo not drawn) [Example 339, 5-Bromo-3-{2-[(pyridin-2-ylmethyl)-amino]-6,7-dihydro-5H-cyclopentapyrimidin-4-yl}-1,3-dihydro-indol-2-one], the pIC50 against CDK5/GST-p25 (class symbols) and on His6-GSK-3β (class symbols) was under 5.00 in each case.

With `CCCn1cc2c(C3C(=O)Nc4ccc(Br)cc43)nc(N[C@@H]3CCNC3)nc2n1` (stereo partly drawn) [Example 363], the pIC50 at CDK5/GST-p25 (class symbols) and on His6-GSK-3β (class symbols) was 5.52 to 6.52 each time.

Regarding `N#Cc1ccc2c(c1)C(c1nc(NCCN3CCCC3)nc3nn(C4CCCC4)cc13)C(=O)N2` (stereo not drawn) [Example 136, 3-[2-cyclopentyl-6-(2-pyrrolidin-1-yl-ethylamino)-2H-pyrazolo[3,4-d]pyrimidin-4-yl]-2-oxo-2,3-dihydro-1H-indole-5-carbonitrile], the pIC50 (usually −log10 of the IC50, conventionally taken in molar units) against CDK5/GST-p25 (numeric bounds) was under 5.52; at His6-GSK-3β (class symbols), over 6.52.

Turning to `O=C1Nc2ccc(Br)cc2C1c1nc(Cl)nc2c1CCC2` (stereo not drawn) [Example 314, 5-Bromo-3-(2-chloro-6,7-dihydro-5H-cyclopentapyrimidin-4-yl)-1,3-dihydro-indol-2-one], the pIC50 against CDK5/GST-p25 (class symbols) and on His6-GSK-3β (class symbols) was under 5.00 throughout.

In the case of `N#Cc1ccc2c(c1)C(c1nc(N3CCN(CCCc4ccccc4)CC3)nc3nn(C4CCCC4)cc13)C(=O)N2` (stereo not drawn) [Example 128, 3-{2-cyclopentyl-6-[4-(3-phenyl-propyl)-piperazin-1-yl]-2H-pyrazolo[3,4-d]pyrimidin-4-yl}-2-oxo-2,3-dihydro-1H-indole-5-carbonitrile], the pIC50 was under 5.00 on CDK5/GST-p25 (class symbols) and over 6.52 on His6-GSK-3β (class symbols).

Regarding `CN(C)CCCNc1nc2c(c(C3C(=O)Nc4ccc(Br)cc43)n1)CCC2` (stereo not drawn) [Example 335, 5-Bromo-3-[2-(3-dimethylamino-propylamino)-6,7-dihydro-5H-cyclopentapyrimidin-4-yl]-1,3-dihydro-indol-2-one], the pIC50 at CDK5/GST-p25 (numeric bounds) and on His6-GSK-3β (numeric bounds) was under 5.52 in each case.

In the case of `N#Cc1ccc2c(c1)C(c1nc(NCCCN3CCCCC3)nc3nn(C4CCCC4)cc13)C(=O)N2` (stereo not drawn) [Example 170, 3[2-Cyclopentyl-6-(3-piperidin-1-yl-propylamino)-2H-pyrazolo[3,4-d]pyrimidin-4-yl]-2-oxo-2,3-dihydro-1H-indole-5-carbonitrile], the pIC50 on CDK5/GST-p25 (class symbols) was 5.52 to 6.52; on His6-GSK-3β (class symbols), over 6.52.

In the case of `CNCCCNc1nc(C2C(=O)Nc3ccc(Br)cc32)c2cn(C)nc2n1` (stereo not drawn) [Example 306, 5-Bromo-3-[2-methyl-6-(3-methylamino-propylamino)-2H-pyrazolo [3,4-d]pyrimidin-4-yl]-1,3-dihydro-indol-2-one], the values for the negative-log IC50 (pIC50) against CDK5/GST-p25 (class symbols) and at His6-GSK-3β (class symbols) were over 6.52 and 5.52 to 6.52, respectively.

With `O=C1Nc2ccc(Cl)cc2C1c1nc(NCc2ccc(Cl)nc2)nc2c1CCC2` (stereo not drawn) [Example 328, 5-Chloro-3-{2-[(6-chloro-pyridin-3-ylmethyl)-amino]-6,7-dihydro-5H-cyclopentapyrimidin-4-yl}-1,3-dihydro-indol-2-one], the negative logarithm of the IC50 (pIC50) on CDK5/GST-p25 (class symbols) and at His6-GSK-3β (class symbols) was under 5.00 each time.

Regarding `N#Cc1ccc2c(c1)C(c1nc(Cl)nc3c1CCC3)C(=O)N2` (stereo not drawn) [Example 317, 3-(2-Chloro-6,7-dihydro-5H-cyclopentapyrimidin-4-yl)-2-oxo-2,3-dihydro-1H-indole-5-carbonitrile], the negative logarithm of the IC50 (pIC50) on CDK5/GST-p25 (class symbols) and on His6-GSK-3β (class symbols) was under 5.00 in each case.

With `N#Cc1ccc2c(c1)C(c1nc(N3CCN(CCN4CCCC4)CC3)nc3nn(C4CCCC4)cc13)C(=O)N2` (stereo not drawn) [Example 127, 3-{2-cyclopentyl-6-[4-(2-pyrrolidin-1-yl-ethyl)-piperazin-1-yl]-2H-pyrazolo[3,4-d]pyrimidin-4-yl}-2-oxo-2,3-dihydro-1H-indole-5-carbonitrile], the values for the pIC50 against CDK5/GST-p25 (class symbols) and on His6-GSK-3β (class symbols) were under 5.00 and over 6.52, respectively.

Take `O=C1Nc2ccc(Cl)cc2C1c1nc(NCc2cccnc2)nc2c1CCC2` (stereo not drawn) [Example 327, 5-Chloro-3-{2-[(pyridin-3-ylmethyl)-amino]-6,7-dihydro-5H-cyclopentapyrimidin-4-yl}-1,3-dihydro-indol-2-one]: the pIC50 on CDK5/GST-p25 (numeric bounds) is under 5.52; at His6-GSK-3β (class symbols), 5.52 to 6.52.

Regarding `N#Cc1ccc2c(c1)C(c1nc(NCCc3cccnc3)nc3nn(C4CCCC4)cc13)C(=O)N2` (stereo not drawn) [Example 114, 3-(2-cyclopentyl-6-(2-pyridin-3-yl-ethylamino)-2H-pyrazolo[3,4-d]pyrimidin-4-yl)-2-oxo-2,3-dihydro-1H-indole-5-carbonitrile], the pIC50 against CDK5/GST-p25 (class symbols) and on His6-GSK-3β (class symbols) was over 6.52 throughout.

As to `CN(C)CCOc1nc(C2C(=O)Nc3ccc(C#N)cc32)c2cn(C3CCCC3)nc2n1` (stereo not drawn) [Example 122, 3-[2-cyclopentyl-6-(2-dimethylamino-ethoxy)-2H-pyrazolo[3,4-d]pyrimidin-4-yl]-2-oxo-2,3-dihydro-1H-indole-5-carbonitrile], the negative-log IC50 (pIC50) was under 5.00 on CDK5/GST-p25 (class symbols) and over 6.52 at His6-GSK-3β (class symbols).

In the case of `C=CCNc1nc(C2C(=O)Nc3ccc(Br)cc32)c2cn(C)nc2n1` (stereo not drawn) [Example 301, 3-(6-Allylamino-2-methyl-2H-pyrazolo[3,4-d]pyrimidin-4-yl)-5-bromo-1,3-dihydro-indol-2-one], the negative-log IC50 (pIC50) against CDK5/GST-p25 (class symbols) and on His6-GSK-3β (class symbols) was over 6.52 throughout.

For the compound `CN(C)CCN1CCN(c2nc(C3C(=O)Nc4ccc(Cl)cc43)c3cn(C4CCCC4)nc3n2)CC1` (stereo not drawn) [Example 144, 5-Chloro-3-{2-cyclopentyl-6-[4-(2-dimethylamino-ethyl)-piperazin-1-yl]-2H-pyrazolo[3,4-d]pyrimidin-4-yl}-1,3-dihydro-indol-2-one], the pIC50 on CDK5/GST-p25 (class symbols) was under 5.00; at His6-GSK-3β (class symbols) it was over 6.52.

In the case of `O=C1Nc2ccc(Cl)cc2C1c1nc(N2CCOCC2)nc2nn(C3CCCC3)cc12` (stereo not drawn) [Example 143, 5-Chloro-3-(2-cyclopentyl-6-morpholin-4-yl-2H-pyrazolo [3,4-d]pyrimidin-4-yl)-1,3-dihydro-indol-2-one], the negative logarithm of the IC50 (pIC50) at CDK5/GST-p25 (class symbols) is under 5.00; at His6-GSK-3β (class symbols), over 6.52.

In the case of `CCOCCn1cc2c(C3C(=O)Nc4ccc(Cl)cc43)nc(NCc3cccnc3)nc2n1` (stereo not drawn) [Example 213, 5-Chloro-3-{2-(2-ethoxy-ethyl)-6[(pyridin-3-ylmethyl)-amino]-2H-pyrazolo[3,4-d]pyrimidin-4-yl}-1,3-dihydro-indol-2-one], the negative-log IC50 (pIC50) on CDK5/GST-p25 (class symbols) and on His6-GSK-3β (class symbols) was over 6.52 each time.

As to `N#Cc1ccc2c(c1)C(c1nc(NCCc3ccccn3)nc3c1CCC3)C(=O)N2` (stereo not drawn) [Example 346, 2-Oxo-3-[2-(2-pyridin-2-yl-ethylamino)-6,7-dihydro-5H-cyclopentapyrimidin-4-yl]-2,3-dihydro-1H-indole-5-carbonitrile], the pIC50 against CDK5/GST-p25 (class symbols) and on His6-GSK-3β (class symbols) was 5.52 to 6.52 throughout.

On to `COCCn1cc2c(C3C(=O)Nc4ccc(Br)cc43)nc(NCCC3CCNCC3)nc2n1` (stereo not drawn) [Example 227, 5-Bromo-3-[2-(2-methoxy-ethyl)-6-(2-piperidin-4-yl-ethylamino)-2H-pyrazolo[3,4-d]pyrimidin-4-yl]-1,3-dihydro-indol-2-one], for which the negative-log IC50 (pIC50) at CDK5/GST-p25 (class symbols) and at His6-GSK-3β (class symbols) was over 6.52 throughout.

`CN(C)CCCNc1nc2c(c(C3C(=O)Nc4ccc(C#N)cc43)n1)CCC2` (stereo not drawn) [Example 342, 3-[2-(3-Dimethylamino-propylamino)-6,7-dihydro-5H-cyclopentapyrimidin-4-yl]-2-oxo-2,3-dihydro-1H-indole-5-carbonitrile]: the pIC50 against CDK5/GST-p25 (class symbols) and on His6-GSK-3β (class symbols) was 5.52 to 6.52 in each case.

On to `O=C1Nc2ccc([N+](=O)[O-])cc2C1c1ncnc2nn(C3CCCC3)cc12` (stereo not drawn) [Example 33, 3-(2-Cyclopentyl-2H-pyrazolo[3,4-d]pyrimidin-4-yl)-5-nitro-1,3-dihydro-indol-2-one], for which the pIC50 against CDK5/GST-p25 (class symbols) and on His6-GSK-3β (class symbols) was over 6.52 in each case.

Take `N#Cc1ccc2c(c1)C(c1nc(NCc3cccnc3)nc3nn(C4CCCC4)cc13)C(=O)N2` (stereo not drawn) [Example 133, 3-{2-cyclopentyl-6-[(pyridin-3-ylmethyl)amino]-2H-pyrazolo[3,4-d]pyrimidin-4-yl}-2-oxo-2,3-dihydro-1H-indole-5-carbonitrile]: the negative logarithm of the IC50 (pIC50) against CDK5/GST-p25 (class symbols) and on His6-GSK-3β (class symbols) was over 6.52 throughout.

As for `O=C1Nc2ccc(Br)cc2C1c1nc(NCc2ccccn2)nc2nn(C3CCCC3)cc12` (stereo not drawn) [Example 179, 5-Bromo-3-{2-cyclopentyl-6-[(pyridin-2-ylmethyl)-amino]-2H-pyrazolo [3,4-d]pyrimidin-4-yl}-1,3-dihydro-1H-indol-2-one], the pIC50 was 5.52 to 6.52 on CDK5/GST-p25 (class symbols) and over 6.52 at His6-GSK-3β (class symbols).

As for `O=C1Nc2ccc(Br)cc2C1c1nc(NCc2ccncc2)nc2c1CCC2` (stereo not drawn) [Example 336, 5-Bromo-3-{2-[(pyridin-4-ylmethyl)-amino]-6,7-dihydro-5H-cyclopentapyrimidin-4-yl}-1,3-dihydro-indol-2-one], the pIC50 on CDK5/GST-p25 (class symbols) is under 5.00; at His6-GSK-3β (numeric bounds), under 5.52.

In the case of `CN(C)CCN(C)c1nc(C2C(=O)Nc3ccc(Cl)cc32)c2cn(C3CCCC3)nc2n1` (stereo not drawn) [Example 140, 5-Chloro-3-{2-cyclopentyl-6-[(2-dimethylamino-ethyl)-methyl-amino]-2H-pyrazolo[3,4-d]pyrimidin-4-yl}-1,3-dihydro-indol-2-one], the pIC50 was under 5.00 at CDK5/GST-p25 (class symbols) and over 6.52 at His6-GSK-3β (class symbols).
